Experimental data: patent US4146610A, “Antibiotics MM13902” (Beecham Group Limited, priority 1974, dated 1979)
Structures can show the parent of a compound that is named as a salt.

Key:
[1] = tested on: tyrpsin; assay: Enzyme inhibition (selectivity); format: biochemical; details: at concentrations in excess of those required to inhibit the β-lactamase of E. coli
[2] = tested on: dopa decarboxylase; assay: Enzyme inhibition (selectivity); format: biochemical; details: at concentrations in excess of those required to inhibit the β-lactamase of E. coli
[3] = tested on: urease; assay: Enzyme inhibition (selectivity); format: biochemical; details: at concentrations in excess of those required to inhibit the β-lactamase of E. coli
[4] = tested on: carbonic anhydrase; assay: Enzyme inhibition (selectivity); format: biochemical; details: at concentrations in excess of those required to inhibit the β-lactamase of E. coli
[5] = tested on: β-lactamases produced by Escherichia coli, Klebsiella aerogenes and Staphylococcus aureus; assay: Inhibition of β-lactamases of various species; format: biochemical
[6] = tested on: chymotrypsin; assay: Enzyme inhibition (selectivity); format: biochemical; details: at concentrations in excess of those required to inhibit the β-lactamase of E. coli
[7] = tested on: monoamine oxidase; assay: Enzyme inhibition (selectivity); format: biochemical; details: at concentrations in excess of those required to inhibit the β-lactamase of E. coli
[8] = Stability; format: physicochemical; details: unsalted acid form
[9] = tested on: Klebsiella aerogenes; assay: Antibiotic activity in arbitrary units; format: cell-based
Method: The material produced above was arbitrarily assigned an activity of 340 l/ml. Assays were determined as described in Description 3.

CC(=O)N/C=C/[S+]([O-])C1=C(C(=O)O)N2C(=O)C(C(C)OS(=O)(=O)O)C2C1 (stereo not shown) [MM 4550A]
enzyme inhibition [1]: does not inhibit
enzyme inhibition [2]: does not inhibit
enzyme inhibition [3]: does not inhibit
enzyme inhibition [4]: does not inhibit
enzyme inhibitory activity against β-lactamases [5]: possesses enzyme inhibitory activity
enzyme inhibition [6]: does not inhibit
enzyme inhibition [7]: does not inhibit

CC(=O)N/C=C/SC1=C(C(=O)O)N2C(=O)C(C(C)OS(=O)(=O)O)C2C1 (stereo not shown) [MM 13902]
stability [8]: tends to be unstable
activity ([9]; partially purified salt, after XAD 4): 37,000 units/mg

CC(=O)N/C=C/SC1=C(C(=O)O)N2C(=O)C(C(C)OS(=O)(=O)O)C2C1 (stereo not shown) [di-sodium salt of MM 13902]
activity ([9]; yellowish powder after cellulose chromatography): 73,000 units/mg
